The supplement of paper PMC10307832

Key:
Assay in all cases: relative viability (nuclei count vs DMSO), 5 days (fraction); higher = more cells survive
[1] = compound: CC1=CC=C(C=C1)C(=O)CN2C3=C(CCCC3)SC2=N [Pifithrin_alpha] + Nc1ncn([C@H]2C[C@H](O)[C@@H](CO)O2)c(=O)n1 [Decitabine] (partner 2 µM)
Summary of the method: (§1)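 Values are medians from duplicate plates. Each reflects relative viability, defined as the nuclei count of treated wells over that of vehicle wells. Lung cancer cell lines in 1536-well plates were pin-tool dosed one day after seeding with one drug alone or with a fixed anchor-drug dose plus five library-drug doses (not always all listed) in √10 steps, then fixed, stained and imaged at 4× after 5 days.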

[2] = compound: CC1=CC=C(C=C1)C(=O)CN2C3=C(CCCC3)SC2=N [Pifithrin_alpha] + COc1cccc2cc(-c3nc([C@H]4CC[C@H](C(=O)O)CC4)n4ncnc(N)c34)[nH]c12 [OSI-027] (partner 0.5 µM)
Summary of the method: as §1

Axitinib + Decitabine = compound: CNC(=O)c1ccccc1Sc1ccc2c(/C=C/c3ccccn3)n[nH]c2c1 [Axitinib] + Nc1ncn([C@H]2C[C@H](O)[C@@H](CO)O2)c(=O)n1 [Decitabine] (partner 2 µM)
Summary of the method: as §1

Bemcentinib + Foretinib = compound: Nc1nc(Nc2ccc3c(c2)CC[C@@H](N2CCCC2)CC3)nn1-c1cc2c(nn1)-c1ccccc1CCC2 [Bemcentinib] + COc1cc2c(Oc3ccc(NC(=O)C4(C(=O)Nc5ccc(F)cc5)CC4)cc3F)ccnc2cc1OCCCN1CCOCC1 [Foretinib] (partner 0.25 µM)
Summary of the method: as §1

Cell Line	relative viability ([1]; first compound 1 µM)	relative viability ([1]; first compound 3.162 µM)	relative viability ([1]; first compound 10 µM)	relative viability ([1]; first compound 31.62 µM)	relative viability ([1]; first compound 100 µM)	relative viability ([2]; first compound 1 µM)	relative viability ([2]; first compound 3.162 µM)	relative viability ([2]; first compound 10 µM)	relative viability ([2]; first compound 31.62 µM)	relative viability ([2]; first compound 100 µM)	relative viability (Axitinib + Decitabine; first compound 0.005 µM)	relative viability (Axitinib + Decitabine; first compound 0.01581 µM)	relative viability (Axitinib + Decitabine; first compound 0.05 µM)	relative viability (Axitinib + Decitabine; first compound 0.1581 µM)	relative viability (Axitinib + Decitabine; first compound 0.5 µM)	relative viability (Bemcentinib + Foretinib; first compound 0.04 µM)	relative viability (Bemcentinib + Foretinib; first compound 0.1265 µM)	relative viability (Bemcentinib + Foretinib; first compound 0.4 µM)	relative viability (Bemcentinib + Foretinib; first compound 1.265 µM)	relative viability (Bemcentinib + Foretinib; first compound 4 µM)
201T	0.866	0.866	0.815	0.701	0.74	0.453	0.542	0.524	0.439	0.467	0.866	0.803	0.851	0.872	0.878	1.07	1.33	1.24	1.12	1.11
A549		0.249	0.215	0.207	0.327						0.324	0.296	0.338	0.243	0.324	0.95	1.03	0.977	1.08	1.11
A-427	0.485	0.582	0.543	0.485	0.531	0.398	0.416	0.445	0.445	0.601	0.58	0.602	0.553	0.57	0.589	1.09	1.1	1.24	1.06	1.19
ABC-1		1.02	1.03	1	0.803	0.358	0.526	0.35	0.299	0.326	1.35		0.866	0.964	1.01	1.05	1.18	1	0.899	0.897
BEN	0.505	0.771	0.742	0.623	0.639	0.294	0.278	0.306	0.286	0.266	0.795	0.758	0.771	0.782	0.635	0.562	0.731	0.711	0.612	0.635
CAL-12T						0.455	0.592	0.457		0.444						1.17	1.1	0.97	1.11	1.07
COR-L23	0.412	0.399	0.404		0.328	0.843	0.822	0.616		0.613	0.504	0.454	0.419	0.511	0.397	0.949	1.23	0.969	1.08	0.999
COR-L 105	0.652	0.622	0.62	0.646	0.581	0.6	0.667	0.591	0.64	0.495	0.727	0.557	0.726	0.727	0.683	1.43	1.27	1.01	0.856	0.993
Calu-6																0.93	0.938	0.947	0.917	0.905
ChaGo-K-1	0.491	0.533	0.515	0.407	0.496	0.374	0.479	0.53	0.321	0.482	0.557	0.527	0.506	0.52	0.495	0.93	1.04	0.899	0.951	0.906
EBC-1																0.0932	0.0983	0.108	0.0894	0.103
EKVX	0.343	0.553	0.319	0.32	0.368	0.668		0.569	0.734	0.604	0.366	0.315	0.344	0.334	0.396	0.837	0.488	0.842	1.11	0.834
EMC-BAC-2		0.95		0.84	0.972	0.329	0.386	0.358		0.353	1.03	0.966	0.971	0.965	0.945	0.972	1.02	1.04	1.03	1.06
EPLC-272H		0.268	0.39	0.375	0.358	0.227	0.307	0.245	0.244	0.256	0.411	0.345	0.338	0.351	0.377	0.639	0.899	0.712	0.839	0.988
H3255	0.581	0.66	0.646	0.389	0.572	0.552	0.608	0.504	0.521	0.572	0.736		0.559	0.508	0.535	0.897	0.857	0.766	0.892	0.724
HARA	0.474	0.622	0.628	0.514	0.472		0.482	0.58		0.441	0.575	0.396	0.484	0.548	0.581	0.856	1.11	1.01	1.04	0.958
HCC-15	0.657	0.738	0.573	0.531	0.456	0.503	0.61	0.611	0.376	0.485	0.637	0.635	0.681	0.615	0.603	1.11	1.18	1.11	1.04	1.11
HCC-44	0.859	0.919	0.812	0.779	0.857	0.39	0.391	0.481	0.324	0.268	0.974	0.919	0.937	0.956	0.872					
HCC-78		0.623	0.673	0.623	0.56	0.349	0.388	0.34	0.326	0.349	0.69	0.577	0.806	0.698	0.653	0.578	0.486	0.555		0.562
